From US5622947A, “Benzoheterocyclic compounds and vasopressin antagonist and oxytocin antagonist compositions containing a benzoheterocyclic compound” (Otsuka Pharmaceutical Co., Ltd., priority 1992, dated 1997) come the findings set out here.

The target of experiment [1] is T1, V1 Recepter (rat liver plasma membrane preparations) (Rattus norvegicus, UniProt P30560).
T1 construct: rat liver plasma membrane preparations; from tissue; host or cells: rat liver plasma membranes
Put plainly: V1 Recepter binding assay. Conditions: [3H]-Arg-vasopressin 2×10^-10 M, 37° C., 10 minutes, pH 8.0, rat liver plasma membrane. As for the experimental part:
Test-1: V1 Recepter binding assay
By using rat liver plasma membrane preparations prepared according to Ichiraha's method [by Akira Ichihara: J. Bio. Chem., 258, 9283 (1983)], the plasma membrane (50,000 dpm, 2×10^-10 M) of [^3 H]-Arg-vasopressin and a test compound (60 μg, 10^-8 to 10^-4 M) were incubated at 37° C. for 10 minutes in 250 μl (in total volume) of 100 mM Tris-HCl buffer (pH=8.0), containing 5 mM MgCl2, 1 mM EDTA and 0.1% BSA. After the incubation, the mixture was filtered three times by using a glass filter (GF/F) so as to separate the membrane preparation by combining with vasopressin and then washed with the buffer (5 ml). This glass filter was taken out and mixed with a liquid of scintillation cocktail. The amount of [^3 H]-vasopressin combining with the membrane was measured by liquid scintillation counter and the rate of inhibitory effect of the test compound was calculated according to the following equation: […]
C1 : the amount of [^3 H]-vasopressin combining with the membrane in the presence of the test compound of a known amount,
C0 : the amount of [^3 H]-vasopressin combining with the membrane in the absence of the test compound,
B1 : the amount of [^3 H]-vasopressin combining with the membrane in the presence of the excess amount of vasopressin (10^-6 M).
The results are expressed as IC50 value, which is the concentration of the test compound required to achieve the inhitory effect in the rate of 50% and are shown in the following Table 156.

The target of experiment [2] is T2, V2 Recepter (rat kidney plasma membrane preparations) (Rattus norvegicus, UniProt Q00788).
T2 construct: rat kidney plasma membrane preparations; from tissue; host or cells: rat kidney plasma membranes
T2 sequence (Q00788 whole entry): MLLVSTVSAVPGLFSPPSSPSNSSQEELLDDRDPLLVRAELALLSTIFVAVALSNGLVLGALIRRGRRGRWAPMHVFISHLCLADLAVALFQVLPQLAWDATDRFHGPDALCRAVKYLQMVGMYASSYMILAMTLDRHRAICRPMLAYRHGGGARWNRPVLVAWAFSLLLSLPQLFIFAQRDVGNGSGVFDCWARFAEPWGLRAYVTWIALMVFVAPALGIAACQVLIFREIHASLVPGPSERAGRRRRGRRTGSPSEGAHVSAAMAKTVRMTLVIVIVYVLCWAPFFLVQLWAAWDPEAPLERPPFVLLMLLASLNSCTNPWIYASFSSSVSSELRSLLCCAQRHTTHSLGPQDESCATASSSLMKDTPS
Put plainly: V2 Recepter binding assay. The note with it: [3H]-Arg-vasopressin 4×10^-10 M, 4° C., pH 8.0, rat kidney plasma membrane. Summed up: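 Rat kidney plasma membranes incubated with [^3H]-Arg-vasopressin (4×10^-10 M) and test compound (10^-10 to 10^-5 M) for 3 h at 4 °C in 100 mM Tris-HCl pH 8.0 with 5 mM MgCl2, 1 mM EDTA, 0.1% BSA. Bound label by filtration and scintillation counting; nonspecific binding with 10^-6 M vasopressin; IC50 reported.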

The target of experiment [3] is T3, Oxytocin receptor (uterin muscle membrane preparation) (Rattus norvegicus, UniProt P70536).
T3 construct: was homogenized, which was used as a membrane; from tissue; host or cells: uterine muscle membranes from diethylstilbestrol-treated animals
T3 sequence (P70536 1-388): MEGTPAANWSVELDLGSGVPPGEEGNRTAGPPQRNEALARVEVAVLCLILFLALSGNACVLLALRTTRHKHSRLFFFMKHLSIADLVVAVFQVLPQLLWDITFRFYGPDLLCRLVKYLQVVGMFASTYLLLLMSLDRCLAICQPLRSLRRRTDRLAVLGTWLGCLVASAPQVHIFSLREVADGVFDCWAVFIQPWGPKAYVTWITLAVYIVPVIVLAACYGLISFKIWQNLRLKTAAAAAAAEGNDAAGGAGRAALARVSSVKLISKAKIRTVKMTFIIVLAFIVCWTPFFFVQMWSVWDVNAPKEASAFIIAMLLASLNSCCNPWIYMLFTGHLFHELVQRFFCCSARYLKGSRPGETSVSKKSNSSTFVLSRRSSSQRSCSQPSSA
Put plainly: Oxytocin receptor binding assay. Conditions: [3H]-oxytocin 10^-9 M, 25°, one hour, pH 8.0, uterin muscle membrane, DES-treated. Summed up: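 Rat uterine membranes (0.2 mg; DES-primed day before) incubated 1 h at 25° with [3H]-oxytocin (10^-9 M) and compound (10^-9 to 10^-5 M) in 100 mM Tris-HCl pH 8.0, 5 mM MgCl2, 1 mM EDTA, 0.1% BSA. Filter-bound radioactivity counted; nonspecific with 5×10^-6 M oxytocin; IC50 reported.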

Counter-ions that a name gives are not always drawn.

T1 sequence (P30560 whole entry): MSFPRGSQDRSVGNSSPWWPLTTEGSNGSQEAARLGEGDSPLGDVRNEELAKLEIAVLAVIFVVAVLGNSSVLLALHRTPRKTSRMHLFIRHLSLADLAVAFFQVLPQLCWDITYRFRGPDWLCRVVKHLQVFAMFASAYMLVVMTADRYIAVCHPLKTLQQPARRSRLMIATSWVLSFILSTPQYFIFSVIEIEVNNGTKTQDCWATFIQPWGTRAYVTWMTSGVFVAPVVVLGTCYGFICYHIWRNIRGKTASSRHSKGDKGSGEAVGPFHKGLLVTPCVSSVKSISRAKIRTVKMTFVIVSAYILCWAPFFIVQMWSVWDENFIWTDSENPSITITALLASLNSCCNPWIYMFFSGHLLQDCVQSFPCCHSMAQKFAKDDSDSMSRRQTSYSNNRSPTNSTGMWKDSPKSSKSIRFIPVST

By IC50 is commonly meant the concentration that inhibits the measured activity by half. With `COc1cc(NC(=O)c2ccccc2Cl)ccc1C(=O)N1CCCC(CC(=O)N2CCN(CC(=O)N3CCCC3)CC2)c2cc(Cl)ccc21` (stereo not drawn) [Example 157, 5-{4-[(1-Pyrrolidynyl)carbonylmethyl]-1-piperazinyl}carbonylmethyl-7-chloro-1-[2-methoxy-4-(2-chlorobenzoylamino)benzoyl]-2,3,4,5-tetrahydro-1H-benzoazepine], the IC50 amounted to 16 nM in experiment [1], 7.3 nM in experiment [2] and 47 nM in experiment [3].
In the same order, the values of `COc1cc(NC(=O)c2ccccc2Cl)ccc1C(=O)N1CCCC(CC(=O)N2CCCN(C)CC2)c2cc(Cl)ccc21` (stereo not drawn) [Example 125, 5-(4-Methyl-1-homopiperazinyl)carbonylmethyl-7-chloro-1-[2-methoxy-4-(2-chlorobenzoylamino)benzoyl]-2,3,4,5-tetrahydro-1H-benzoazepine] are 8 nM, 4 nM and 37 nM.
As to `CCN(CC)CCOC1CCCN(C(=O)c2ccc(N3Cc4ccccc4C3=O)cc2)c2ccc(Cl)cc21` (stereo not drawn) [Example 131, 5-(2-Diethylaminoethoxy)-7-chloro-1-[4-(1-oxoisoindolin-2-yl)benzoyl]-2,3,4,5-tetrahydro-1H-bezoazepine], the IC50 in experiment [1] came out at 32 nM; in experiment [2], 170 nM; in experiment [3], 1790 nM.
For `COc1cc(NC(=O)c2ccccc2Cl)ccc1C(=O)N1CCCC(OCCNS(C)(=O)=O)c2cc(Cl)ccc21` (stereo not drawn) [Example 172, 5-(2-Methanesulfonylaminoethoxy)-7-chloro-1-[2-methoxy-4-(2-chlorobenzoylamino)benzoyl]-2,3,4,5-tetrahydro-1H-benzoazepine], the results for the IC50 in experiment [1], in experiment [2] and in experiment [3] were 5 nM, 3.9 nM and 133 nM, respectively.
`CCOC(=O)N1CCN(CCC2CCCN(C(=O)c3ccc(NC(=O)c4ccccc4Cl)cc3OC)c3ccc(Cl)cc32)CC1` (stereo not drawn) [Example 147, 5-[2-(4-Ethoxycarbonyl-1-piperazinyl)ethyl]-7-chloro-1-[2-methoxy-4-(2-chlorobenzoylamino)-benzoyl]-2,3,4,5-tetrahydro-1H-benzoazepine]: the IC50 was 39 nM in experiment [1], 14 nM in experiment [2] and 504 nM in experiment [3].
On to `COc1cc(NC(=O)c2ccccc2Cl)ccc1C(=O)N1CCCC(CC(=O)Nc2ccncc2)c2cc(Cl)ccc21` (stereo not drawn) [Example 127, 5-(4-Pyridyl)aminocarbonylmethyl-7-chloro-1-[2-methoxy-4-(2-chlorobenzoylamino)benzoyl]-2,3,4,5-tetrahydro-1H-benzoazepine], for which the IC50 was 23 nM in experiment [1], 4 nM in experiment [2] and 32 nM in experiment [3].
With `COc1cc(NC(=O)c2ccccc2Cl)ccc1C(=O)N1CCCC(OCC[S+]([O-])c2ccncc2)c2cc(Cl)ccc21` (stereo not drawn) [Example 143, 5-[2-(4-Pyridyl)sulfinylethoxy]-7-chloro-1-[2-methoxy-4-(2-chlorobenzoylamino)benzoyl]-2,3,4,5-tetrahydro-1H-benzoazepine], the values for the half-inhibitory concentration (IC50) in experiment [1], in experiment [2] and in experiment [3] were 13 nM, 22 nM and 200 nM, respectively.
Turning to `COc1cc(NC(=O)c2ccccc2Cl)ccc1C(=O)N1CCCC(OCCn2ccnc2)c2cc(Cl)ccc21` (stereo not drawn) [Example 171, 5-[2-(1-Imidazolyl)ethoxy]-7-chloro-1-[2-methoxy-4-(2-chlorobenzoylamino)benzoyl]-2,3,4,5-tetrahydro-1H-benzoazepine], the results for the IC50 in experiment [1], in experiment [2] and in experiment [3] were 110 nM, 15 nM and 317 nM, respectively.
`COc1cc(NC(=O)c2ccccc2Cl)ccc1C(=O)N1CCCC(NC(=O)c2ccccc2Cl)c2cc(Cl)ccc21` (stereo not drawn) [Example 159, 5-(2-Chlorobenzoylamino)-7-chloro-1-[2-methoxy-4-(2-chlorobenzoylamino)benzoyl]-2,3,4,5-tetrahydro-1H-benzoazepine]: the half-maximal inhibitory concentration (IC50) in experiment [1] was 280 nM; in experiment [2] it was 25 nM; in experiment [3], 1700 nM.
For `COc1cc(NC(=O)c2ccccc2Cl)ccc1C(=O)N1CCCC(OCCNC(N)=O)c2cc(Cl)ccc21` (stereo not drawn) [Example 136, 5-(2-Ureidoethoxy)-7-chloro-1-[2-methoxy-4-(2-chlorobenzoylamino)benzoyl]-2,3,4,5-tetrahydro-1H-benzoazepine], the IC50 in experiment [1] amounted to 37 nM; in experiment [2], 4.3 nM; in experiment [3], 151 nM.
For `COc1cc(NC(=O)c2ccccc2Cl)ccc1C(=O)N1CCCC(OCCNCc2ccccc2)c2cc(Cl)ccc21` (stereo not drawn) [Example 150, 5-(2-Benzylaminoethoxy)-7-chloro-1-[2-methoxy-4-(2-chlorobenzoylamino)benzoyl]-2,3,4,5-tetrahydro-1H-benzoazepine], the IC50 in experiment [1] turned out to be 16 nM; in experiment [2], 9 nM; in experiment [3], 471 nM.
The like results for `COc1cc(NC(=O)c2ccccc2Cl)ccc1C(=O)N1CCCC(OCCSc2nccc(C)n2)c2cc(Cl)ccc21` (stereo not drawn) [Example 140] were, in that order, 280 nM, 46 nM and 4290 nM.
As to `CNC(=S)NCCOC1CCCN(C(=O)c2ccc(NC(=O)c3ccccc3Cl)cc2OC)c2ccc(Cl)cc21` (stereo not drawn) [Example 133, 5-(2-Methylaminothiocarbonylaminoethoxy)-7-chloro-1-[2-methoxy-4-(2-chlorobenzoylamino)benzoyl]-2,3,4,5-tetrahydro-1H-benzoazepine], the IC50 came out at 20 nM in experiment [1], 49 nM in experiment [2] and 72 nM in experiment [3].
With `C=CCNCCOC1CCCN(C(=O)c2ccc(NC(=O)c3ccccc3Cl)cc2OC)c2ccc(Cl)cc21` (stereo not drawn) [Example 169, 5-(2-Allylaminoethoxy)-7-chloro-1-[2-methoxy-4-(2-chlorobenzoylamino)benzoyl]-2,3,4,5-tetrahydro-1H-benzoazepine.cndot.hydrochloride], the IC50 stood at 7 nM in experiment [1], 5.6 nM in experiment [2] and 147 nM in experiment [3].
In the same order, the values of `COc1cc(NC(=O)c2ccccc2Cl)ccc1C(=O)N1CCCC(CC(=O)N2CCN(CC(O)CNC(C)C)CC2)c2cc(Cl)ccc21` (stereo not drawn) [Example 87, 5-[4-(2-Hydroxy-3-isopropylaminopropyl)-1-piperazinyl]carbonylmethyl-7-chloro-1-[2-methoxy-4-(2-chlorobenzoylamino)benzoyl]-2,3,4,5-tetrahydro-1H-benzoazepine] are 7 nM, 2 nM and 70 nM.
On to `CCN(CC)CCCNCCOC1CCCN(C(=O)c2ccc(NC(=O)c3ccccc3Cl)cc2OC)c2ccc(Cl)cc21` (stereo not drawn) [Example 153, 5-[2-(3-Diethylaminopropyl)aminoethoxy]-7-chloro-1-[2-methoxy-4-(2-chlorobenzoylamino)benzoyl]-2,3,4,5-tetrahydro-1H-benzoazepine], for which the IC50 in experiment [1] turned out to be 36 nM; in experiment [2] it was 5 nM; in experiment [3], 248 nM.
In the same order, the values of `COc1cc(NC(=O)c2ccccc2Cl)ccc1C(=O)N1CCCC(CC(=O)NCCC2CCCN2C)c2cc(Cl)ccc21` (stereo not drawn) [Example 155, 5-[2-(1-Methyl-2-pyrrolidinyl)ethyl]-aminocarbonylmethyl-7-chloro-1-[2-methoxy-4-(2-chlorobenzoylamino)benzoyl]-2,3,4,5-tetrahydro-1H-benzoazepine] are 7 nM, 1.9 nM and 55 nM.
